We go through 3 compounds from PubChem BioAssay AID2060501 (Molecular Pharmacology Branch, DTP, NCI, 2025).
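Further: spheroids exposed to compounds for 7 days before readout; percent of vehicle DMSO control viability with 100% = untreated-like growth.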

The test system of one test is 282377-053-R-J1-PDC complex spheroids, viability. As to the kind of experiment: Anticancer human tumor 282377-053-R-J1-PDC patient-derived colon adenocarcinoma cell line growth inhibition [GQUAD]. The conditions noted are these: second compound 3.16 µM; first compound 0.1 µM; active compounds read low. The source says: DNA G-quadruplex Stabilizer Agents in Combinations in Complex Spheroids
A high-throughput screen of multi-cell type tumor spheroids was designed to identify active combinations of DNA G-quadruplex stabilizer agents and targeted small molecules. Complex spheroids include a stromal component modeled by human endothelial cells (HUVEC) and fibroblasts modeled by human mesenchymal stem cells (MSCs). The concentration ranges selected for each drug and investigational agent were based upon clinically achievable concentrations if the clinical Cmax of the agent was known.
Compounds. The drugs and investigational agents: pidnarulex (CX-5461; NSC782164), APTO-253 (NSC789042), BRACO-19 (NSC847499), peposertib (NSC802822), ceralasertib (NSC780249), elimusertib (NSC800525), camonsertib (NSC841442), AZD-1390 (NSC803789), olaparib (NSC753686), talazoparib (NSC767125), ART-558 (NSC835418), sotorasib (NSC818433), MRTX-1133 (NSC836407), SN-38 (NSC673596), topotecan (NSC609699), etoposide (NSC141540), doxorubicin (NSC123127), gemcitabine (NSC613327), 5-fluorouracil (NSC19893), paclitaxel (NSC125973), vemurafenib (NSC761431), panobinostat (NSC761190), R-306465 (JNJ-16241199; NSC773264), adavosertib (NSC754352), TP-3654 (NSC805149), carboplatin (NSC241240), KSQ-4279 (NSC840948), and staurosporine (NSC755774) were obtained from the National Cancer Institute (NCI) Developmental Therapeutics Program Chemical Repository (34). The FDA-approved anticancer drug set is available from the NCI Developmental Therapeutics Program. […] The stock solutions were prepared in dimethyl sulfoxide (DMSO, Sigma-Aldrich, St. Louis, MO, cat. D2650) at 800-fold the tested concentration and stored at -70 degrees C prior to their use. All drugs and investigational agents were tested over a range starting from a high concentration at or near the clinical Cmax and decreasing in half-log increments. If the clinical Cmax for an agent had not been determined, the highest concentration tested was 10 microM.
2.3 Cell Culture. All cells were maintained in an incubator at 37 degrees C and 5% CO2 with 95% humidity. The PDC lines were cultured according to standard operating procedures established by the NCI PDMR. All PDCs were thawed and cultured in Matrigel-coated flasks prepared with a working solution of 1X Ham's F-12 nutrient mix, without supplementation (Invitrogen, cat. 11765054), 100 U/mL penicillin-streptomycin (Invitrogen, cat. 15140122), and 2.5% Matrigel (Corning Inc., cat. 354248) for the first three passages. The 857933-349-R-J2-PDC line was cultured in 6C/Colon 1B media, which includes advanced DMEM/F-12 (Thermo Fisher Scientific, cat. 12634028), 10 mM HEPES (Thermo Fisher Scientific, cat. 15630080), 1X GlutaMAX supplement (Thermo Fisher Scientific, cat. 35050061), 0.1 mg/mL primocin (InvivoGen, cat. ant-pm-2), 10% defined fetal bovine serum, heat inactivated (HyClone Laboratories Inc., cat. SH30070.03HI), 50% L-WRN conditioned media (ATCC, cat. CRL-3276), 1.25 mM N-Acetyl-L-cysteine (Sigma-Aldrich, cat. A9165), 10 mM nicotinamide (Sigma-Aldrich, cat. N0636), 1X B-27 supplement (Thermo Fisher Scientific, cat. 17504044), 1X N-2 supplement (Thermo Fisher Scientific, cat. 17502048), 10 microM Y-27632 dihydrochloride (Tocris Bioscience, cat. 1254), and 50 ng/mL human EGF recombinant protein (Thermo Fisher Scientific, cat. PHG0311). The 485176-168-R4-J1-PDC line was cultured in Panc media, which includes all 6C/Colon 1B media components plus 100 ng/mL human FGF-10 (Thermo Fisher Scientific, cat. 100-26), 500 nM SB-431542 (Selleckchem, cat. S1067), and gastrin (Tocris, cat. 3006).
[…]
For orientation: viability, T/C means the result in the treated group divided by that in the control group, in per cent. As for `C=CC(=O)N1CCN(c2nc(=O)n(-c3c(C)ccnc3C(C)C)c3nc(-c4c(O)cccc4F)c(F)cc23)C(C)C1` (stereo unspecified) + CN(C)c1ccc(Nc2c3ccc(NC(=O)CCN4CCCC4)cc3nc3cc(NC(=O)CCN4CCCC4)ccc23)cc1, the viability, T/C was 90.2%.

For the compound `COc1cccc2c1C(=O)c1c(O)c3c(c(O)c1C2=O)CC(O)(C(=O)CO)CC3OC1CC(N)C(O)C(C)O1` (stereo unspecified) + CN(C)c1ccc(Nc2c3ccc(NC(=O)CCN4CCCC4)cc3nc3cc(NC(=O)CCN4CCCC4)ccc23)cc1, the viability, T/C is 88.1%.

The same test, now with this note: second compound 3.16 µM; first compound 0.316 µM; active compounds read low.
For `C#Cc1c(F)ccc2cc(O)cc(-c3ncc4c(N5CC6CCC(C5)N6)nc(OCC56CCCN5CC(F)C6)nc4c3F)c12` (stereo unspecified) + CN(C)c1ccc(Nc2c3ccc(NC(=O)CCN4CCCC4)cc3nc3cc(NC(=O)CCN4CCCC4)ccc23)cc1, the viability, T/C was 86.6%.

Take `C=CC(=O)N1CCN(c2nc(=O)n(-c3c(C)ccnc3C(C)C)c3nc(-c4c(O)cccc4F)c(F)cc23)C(C)C1` (stereo unspecified) + CN(C)c1ccc(Nc2c3ccc(NC(=O)CCN4CCCC4)cc3nc3cc(NC(=O)CCN4CCCC4)ccc23)cc1: the viability, T/C was 100%.

Consider `COc1cccc2c1C(=O)c1c(O)c3c(c(O)c1C2=O)CC(O)(C(=O)CO)CC3OC1CC(N)C(O)C(C)O1` (stereo unspecified) + CN(C)c1ccc(Nc2c3ccc(NC(=O)CCN4CCCC4)cc3nc3cc(NC(=O)CCN4CCCC4)ccc23)cc1, for which the viability, T/C was 96.5%.

Still in this test, the particulars now being: second compound 3.16 µM; first compound 1 µM; active compounds read low.
`C#Cc1c(F)ccc2cc(O)cc(-c3ncc4c(N5CC6CCC(C5)N6)nc(OCC56CCCN5CC(F)C6)nc4c3F)c12` (stereo unspecified) + CN(C)c1ccc(Nc2c3ccc(NC(=O)CCN4CCCC4)cc3nc3cc(NC(=O)CCN4CCCC4)ccc23)cc1: the viability, T/C is 77.3%.

With `C=CC(=O)N1CCN(c2nc(=O)n(-c3c(C)ccnc3C(C)C)c3nc(-c4c(O)cccc4F)c(F)cc23)C(C)C1` (stereo unspecified) + CN(C)c1ccc(Nc2c3ccc(NC(=O)CCN4CCCC4)cc3nc3cc(NC(=O)CCN4CCCC4)ccc23)cc1, the viability, T/C is 84.9%.

Consider `COc1cccc2c1C(=O)c1c(O)c3c(c(O)c1C2=O)CC(O)(C(=O)CO)CC3OC1CC(N)C(O)C(C)O1` (stereo unspecified) + CN(C)c1ccc(Nc2c3ccc(NC(=O)CCN4CCCC4)cc3nc3cc(NC(=O)CCN4CCCC4)ccc23)cc1, for which the viability, T/C was 74.2%.

Staying with this test, now noted: second compound 3.16 µM; first compound 3.16 µM; active compounds read low.
With `C#Cc1c(F)ccc2cc(O)cc(-c3ncc4c(N5CC6CCC(C5)N6)nc(OCC56CCCN5CC(F)C6)nc4c3F)c12` (stereo unspecified) + CN(C)c1ccc(Nc2c3ccc(NC(=O)CCN4CCCC4)cc3nc3cc(NC(=O)CCN4CCCC4)ccc23)cc1, the viability, T/C is 91.7%.

In the case of `C=CC(=O)N1CCN(c2nc(=O)n(-c3c(C)ccnc3C(C)C)c3nc(-c4c(O)cccc4F)c(F)cc23)C(C)C1` (stereo unspecified) + CN(C)c1ccc(Nc2c3ccc(NC(=O)CCN4CCCC4)cc3nc3cc(NC(=O)CCN4CCCC4)ccc23)cc1, the viability, T/C was 79.9%.

In the case of `COc1cccc2c1C(=O)c1c(O)c3c(c(O)c1C2=O)CC(O)(C(=O)CO)CC3OC1CC(N)C(O)C(C)O1` (stereo unspecified) + CN(C)c1ccc(Nc2c3ccc(NC(=O)CCN4CCCC4)cc3nc3cc(NC(=O)CCN4CCCC4)ccc23)cc1, the viability, T/C is 35.2%.

The same test, now with this note: second compound 3.16 µM; first compound 10 µM; active compounds read low.
Take `C#Cc1c(F)ccc2cc(O)cc(-c3ncc4c(N5CC6CCC(C5)N6)nc(OCC56CCCN5CC(F)C6)nc4c3F)c12` (stereo unspecified) + CN(C)c1ccc(Nc2c3ccc(NC(=O)CCN4CCCC4)cc3nc3cc(NC(=O)CCN4CCCC4)ccc23)cc1: the viability, T/C is 88.7%.

Regarding `C=CC(=O)N1CCN(c2nc(=O)n(-c3c(C)ccnc3C(C)C)c3nc(-c4c(O)cccc4F)c(F)cc23)C(C)C1` (stereo unspecified) + CN(C)c1ccc(Nc2c3ccc(NC(=O)CCN4CCCC4)cc3nc3cc(NC(=O)CCN4CCCC4)ccc23)cc1, the viability, T/C was 89.9%.

On to `COc1cccc2c1C(=O)c1c(O)c3c(c(O)c1C2=O)CC(O)(C(=O)CO)CC3OC1CC(N)C(O)C(C)O1` (stereo unspecified) + CN(C)c1ccc(Nc2c3ccc(NC(=O)CCN4CCCC4)cc3nc3cc(NC(=O)CCN4CCCC4)ccc23)cc1, for which the viability, T/C is 2.76%.

Still in this test, the particulars now being: second compound 10 µM; first compound 0.0316 µM; active compounds read low.
In the case of `C#Cc1c(F)ccc2cc(O)cc(-c3ncc4c(N5CC6CCC(C5)N6)nc(OCC56CCCN5CC(F)C6)nc4c3F)c12` (stereo unspecified) + CN(C)c1ccc(Nc2c3ccc(NC(=O)CCN4CCCC4)cc3nc3cc(NC(=O)CCN4CCCC4)ccc23)cc1, the viability, T/C is 83.1%.

As for `C=CC(=O)N1CCN(c2nc(=O)n(-c3c(C)ccnc3C(C)C)c3nc(-c4c(O)cccc4F)c(F)cc23)C(C)C1` (stereo unspecified) + CN(C)c1ccc(Nc2c3ccc(NC(=O)CCN4CCCC4)cc3nc3cc(NC(=O)CCN4CCCC4)ccc23)cc1, the viability, T/C was 111%.
